Assays:
[1] = Chemical stability under acidic conditions; assay type: physicochemical; conditions: pH 5
Experimental: The reported chemistry was carried out on a very small scale, with no detailed analysis of the purity profile of the product 1.

folate receptor α (FRα) = folate receptor α (FRα) (Homo sapiens, UniProt P15328); conditions: read-out: Ki (affinity) for folate receptor α (FRα); cited from earlier work
thymidilate synthase = conditions: read-out: IC50 for the enzyme (thymidilate synthase); cited from earlier work
[2] = biological target: T1, polyglutamoylation synthase enzyme (Homo sapiens, UniProt Q05932); conditions: cited from earlier work
T1 sequence (Q05932 43-587): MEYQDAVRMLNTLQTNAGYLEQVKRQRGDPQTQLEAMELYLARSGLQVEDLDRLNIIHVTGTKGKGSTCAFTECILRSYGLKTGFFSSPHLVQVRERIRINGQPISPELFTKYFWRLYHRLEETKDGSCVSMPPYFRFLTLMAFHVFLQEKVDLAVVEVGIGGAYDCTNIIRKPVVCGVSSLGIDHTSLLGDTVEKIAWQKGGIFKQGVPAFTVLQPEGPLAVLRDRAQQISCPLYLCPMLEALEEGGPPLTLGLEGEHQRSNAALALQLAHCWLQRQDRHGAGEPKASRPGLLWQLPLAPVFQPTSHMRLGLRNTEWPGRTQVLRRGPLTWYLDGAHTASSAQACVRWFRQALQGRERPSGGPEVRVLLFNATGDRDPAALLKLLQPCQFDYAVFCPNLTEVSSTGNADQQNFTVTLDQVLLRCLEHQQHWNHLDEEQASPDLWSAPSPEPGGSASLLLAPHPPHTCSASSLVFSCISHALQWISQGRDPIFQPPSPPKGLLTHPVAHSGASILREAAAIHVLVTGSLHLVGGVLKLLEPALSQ

[3] = biological target: T2, reduced folate carrier protein (RFCP) (Homo sapiens, UniProt P41440); conditions: not a substrate for RFCP; cited from earlier work
T2 sequence (P41440 1-591): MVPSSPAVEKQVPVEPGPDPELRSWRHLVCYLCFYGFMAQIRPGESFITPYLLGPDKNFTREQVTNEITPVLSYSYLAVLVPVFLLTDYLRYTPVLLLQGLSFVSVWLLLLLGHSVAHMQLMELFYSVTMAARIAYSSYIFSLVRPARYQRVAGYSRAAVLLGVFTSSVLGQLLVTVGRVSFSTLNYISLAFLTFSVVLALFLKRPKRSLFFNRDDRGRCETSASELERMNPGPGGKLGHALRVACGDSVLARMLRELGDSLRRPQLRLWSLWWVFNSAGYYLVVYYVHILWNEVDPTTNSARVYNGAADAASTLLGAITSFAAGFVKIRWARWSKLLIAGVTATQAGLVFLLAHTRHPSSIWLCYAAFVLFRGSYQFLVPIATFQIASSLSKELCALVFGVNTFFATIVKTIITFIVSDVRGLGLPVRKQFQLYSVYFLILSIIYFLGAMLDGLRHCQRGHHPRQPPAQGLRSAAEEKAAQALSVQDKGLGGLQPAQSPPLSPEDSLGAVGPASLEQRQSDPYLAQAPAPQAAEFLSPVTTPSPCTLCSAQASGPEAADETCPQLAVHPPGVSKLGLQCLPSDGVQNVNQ

folate receptor α (FRα), sequence (P15328 25-234, species assumed): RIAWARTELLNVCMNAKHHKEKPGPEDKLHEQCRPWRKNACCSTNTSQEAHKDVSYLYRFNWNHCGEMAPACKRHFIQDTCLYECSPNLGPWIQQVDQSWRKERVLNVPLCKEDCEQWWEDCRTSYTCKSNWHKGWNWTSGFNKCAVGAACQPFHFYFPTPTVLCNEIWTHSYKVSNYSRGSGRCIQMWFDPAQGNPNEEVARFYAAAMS

Compound	Stability in aqueous solution [1]	Ki (folate receptor α (FRα)) [nM]	IC50 (thymidilate synthase) [nM]	Substrate for the polyglutamoylation synthase enzyme [2]	Ki [3] [nM]
C#CCN(c1ccc(C(=O)N[C@@H](CCC(=O)N[C@H](CCC(=O)O)C(=O)O)C(=O)O)cc1)[C@H]1CCc2cc3nc(CO)[nH]c(=O)c3cc21 [Compound 1, (2,R)-((4,S)-carboxy-4-(4,N-(((6S)-2-(hydroxymethyl)-4-oxo-3,4,7,8-tetrahydro-3H-cyclopenta[g]quinazolin-6-yl)-N-(prop-2-ynyl)amino)benzamido)butanamido)pentanedioic acid]	limited stability				
C#CCN(c1ccc(C(=O)N[C@@H](CCC(=O)N[C@H](CCC(=O)[O-])C(=O)[O-])C(=O)[O-])cc1)[C@H]1CCc2cc3nc(CO)[nH]c(=O)c3cc21.[Na+].[Na+].[Na+] [Compound 2, (2,R)-((4,S)-carboxy-4-(4,N-(((6S)-2-(hydroxymethyl)-4-oxo-3,4,7,8-tetrahydro-3H-cyclopenta[g]quinazolin-6-yl)-N-(prop-2-ynyl)amino)benzamido)butanamido)pentanedioic acid trisodium salt]		0.5	3	not a substrate	> 250000

Reference: US9458188B2, “Efficient peptide couplings and their use in the synthesis and isolation of a cyclopenta (G) quinazoline trisodium salt” (BTG INTERNATIONAL LIMITED, priority 2010, dated 2016)
